{"source": "paper PMC7701285", "about": "“A Strain-Specific Inhibitor of Receptor-Bound HIV-1 Targets a Pocket near the Fusion Peptide” (Cell Reports, 2020)", "biological_target": "B41 SOSIP.664 pseudotype parent; B41 (9032_08_A1) HIV-1 Env on pseudotyped virus (Human immunodeficiency virus 1, UniProt B3UES2)", "assay": "TZM-bl pseudovirus neutralization, luciferase", "assay_type": "cell-based", "conditions": "average, 1 h preincubation at 37°C, 1% DMSO, 48 h, entry read-out", "data": [{"smiles": "Cc1ccc(-c2ccc(NC(=O)N3CCC4(CCO4)CC3)cc2)cc1", "note": "[GO52]", "values": [{"measurement": "IC50", "value": 1.6, "unit": "µM"}]}]}
